PubChem BioAssay (NCI)
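GI50: concentration for 50% inhibition of growth. TGI: concentration producing complete growth inhibition.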

Columns and labels:
Assay in all cases: inhibition of tumour cell growth, NCI panel, 384-well format; in the data active = GI50 below about 0.43 µM; inactive = the rest
[1] = tested on: SK-MEL-28 melanoma
[2] = tested on: UO-31 renal
[3] = tested on: SK-OV-3 ovarian
[4] = tested on: SW-620 colon
[5] = tested on: NCI-H23 lung
[6] = tested on: OVCAR-8 ovarian
[7] = tested on: TK-10 renal
[8] = tested on: NCI-H226 lung
[9] = tested on: MCF7 breast
[10] = tested on: HCC-2998 colon
[11] = tested on: NCI-H460 NSCLC
[12] = tested on: RXF 393 renal
[13] = tested on: HL-60(TB) leukemia

CC(O)[C@H](NC(=O)N[C@@H](CC(N)=O)c1nc(N2CCNCC2)no1)C(=O)O (stereo partly specified)
inactive: GI50 [1] > 100 µM | GI50 [2] > 100 µM | GI50 [3] > 100 µM | GI50 [4] > 100 µM | GI50 [5] > 100 µM | GI50 [6] > 100 µM | GI50 [7] > 100 µM | GI50 [8] > 100 µM | GI50 [9] > 100 µM | GI50 [10] > 100 µM | GI50 [11] > 100 µM | GI50 [12] > 100 µM | GI50 [13] > 100 µM
> 100 µM: TGI [1] | TGI [2] | TGI [3] | TGI [4] | TGI [5] | TGI [6] | TGI [7] | TGI [8] | TGI [9] | TGI [10] | TGI [11] | TGI [12] | TGI [13]
